According to ChEMBL document CHEMBL1201862, “PubChem BioAssay data set” (2004):
Several values for one entry are separate records, joined by “and”; a condition that tells them apart may be missing. Identical values can stand only once. Activity calls are given as the source filed them.

Experiments:
Bcl-2-related protein A1 = target: T1, Bcl-2-related protein A1 (Mus musculus, UniProt Q07440); type: functional;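 further: confirmatory dose–response counterscreen on Bfl-1, used to check hits from a UBC13 polyubiquitin inhibitor campaign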
T1 sequence (Q07440 whole entry): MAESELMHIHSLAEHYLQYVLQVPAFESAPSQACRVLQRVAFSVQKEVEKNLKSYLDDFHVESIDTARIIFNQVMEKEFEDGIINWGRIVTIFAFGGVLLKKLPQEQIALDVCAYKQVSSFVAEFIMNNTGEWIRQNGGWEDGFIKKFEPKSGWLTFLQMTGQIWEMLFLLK

[1] = target: T2, DNA repair protein RAD52 homolog (Homo sapiens, UniProt P43351); type: functional, biochemical
T2 sequence (P43351 whole entry): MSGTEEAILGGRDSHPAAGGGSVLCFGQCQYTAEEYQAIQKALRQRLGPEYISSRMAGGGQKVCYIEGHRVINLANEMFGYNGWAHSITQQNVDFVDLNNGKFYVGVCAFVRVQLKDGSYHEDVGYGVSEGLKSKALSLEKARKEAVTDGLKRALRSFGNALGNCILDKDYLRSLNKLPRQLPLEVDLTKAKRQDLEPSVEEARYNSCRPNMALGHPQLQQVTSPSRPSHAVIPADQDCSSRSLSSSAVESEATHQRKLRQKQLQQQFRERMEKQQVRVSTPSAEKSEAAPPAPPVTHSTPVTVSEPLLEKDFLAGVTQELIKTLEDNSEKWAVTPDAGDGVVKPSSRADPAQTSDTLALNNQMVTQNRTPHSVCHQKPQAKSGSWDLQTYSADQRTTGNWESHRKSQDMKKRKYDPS

[2] = target: T3, Ubiquitin-conjugating enzyme E2 N (Homo sapiens, UniProt P61088); type: functional
T3 sequence (P61088 whole entry): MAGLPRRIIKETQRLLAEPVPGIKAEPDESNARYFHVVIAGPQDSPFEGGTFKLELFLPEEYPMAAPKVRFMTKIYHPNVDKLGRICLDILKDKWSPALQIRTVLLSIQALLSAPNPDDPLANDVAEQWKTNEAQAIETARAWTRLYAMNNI

[3] = growth suppression of PTEN-null colon cells, dose response, cell-based, HCT116 PTEN knockout (AID 1047); type: functional;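 further: HCT116 colon tumor cells with PTEN knocked out; cells exposed to compound for 60 hours before readout; potency for loss of cell viability measured by luminescence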
[4] = target: T3, Ubiquitin-conjugating enzyme E2 N; type: functional; remark: listed apart in the source
[5] = HEp-2 cell cytotoxicity, dose response, cytotoxicity control for RSV inhibitor project, HTS (AID 2410); type: functional; details: human respiratory syncytial virus
[6] = growth suppression of beta-catenin-knockout colon cells, dose response, cell-based, HCT116, human colon tumor (AID 1045); type: functional;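 further: HCT116 colon tumor cells with beta catenin knocked out; cells exposed to compound for 60 hours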
[7] = target: Peroxisome proliferator-activated receptor gamma/Nuclear receptor coactivator 2 (Homo sapiens, UniProt P37231); experiment: TR-FRET dose response biochemical High Throughput Screening assay for agonists of the steroid receptor coactivator 2 (SRC-2) recruitment by the peroxisome proliferator-activated receptor gamma (PPAR gamma): non-selective agonists. [Related pubchem assays: 1297, 1032 ]; type: functional
Chain of Peroxisome proliferator-activated receptor gamma/Nuclear receptor coactivator 2 (P37231 whole entry): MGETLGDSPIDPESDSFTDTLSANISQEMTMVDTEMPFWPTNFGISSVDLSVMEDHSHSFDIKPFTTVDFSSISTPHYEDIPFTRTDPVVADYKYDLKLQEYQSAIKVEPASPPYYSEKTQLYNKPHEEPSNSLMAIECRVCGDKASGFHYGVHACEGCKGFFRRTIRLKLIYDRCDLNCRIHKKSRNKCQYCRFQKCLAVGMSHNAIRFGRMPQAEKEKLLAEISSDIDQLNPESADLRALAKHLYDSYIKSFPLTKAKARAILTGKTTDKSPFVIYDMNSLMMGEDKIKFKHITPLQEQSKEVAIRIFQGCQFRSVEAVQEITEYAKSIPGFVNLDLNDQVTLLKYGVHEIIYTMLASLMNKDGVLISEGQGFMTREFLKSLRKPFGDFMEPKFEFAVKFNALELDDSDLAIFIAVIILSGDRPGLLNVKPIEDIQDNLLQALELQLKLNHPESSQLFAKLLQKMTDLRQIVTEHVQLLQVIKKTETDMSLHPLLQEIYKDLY
Chain of Peroxisome proliferator-activated receptor gamma/Nuclear receptor coactivator 2 (Q15596 whole entry, further chain): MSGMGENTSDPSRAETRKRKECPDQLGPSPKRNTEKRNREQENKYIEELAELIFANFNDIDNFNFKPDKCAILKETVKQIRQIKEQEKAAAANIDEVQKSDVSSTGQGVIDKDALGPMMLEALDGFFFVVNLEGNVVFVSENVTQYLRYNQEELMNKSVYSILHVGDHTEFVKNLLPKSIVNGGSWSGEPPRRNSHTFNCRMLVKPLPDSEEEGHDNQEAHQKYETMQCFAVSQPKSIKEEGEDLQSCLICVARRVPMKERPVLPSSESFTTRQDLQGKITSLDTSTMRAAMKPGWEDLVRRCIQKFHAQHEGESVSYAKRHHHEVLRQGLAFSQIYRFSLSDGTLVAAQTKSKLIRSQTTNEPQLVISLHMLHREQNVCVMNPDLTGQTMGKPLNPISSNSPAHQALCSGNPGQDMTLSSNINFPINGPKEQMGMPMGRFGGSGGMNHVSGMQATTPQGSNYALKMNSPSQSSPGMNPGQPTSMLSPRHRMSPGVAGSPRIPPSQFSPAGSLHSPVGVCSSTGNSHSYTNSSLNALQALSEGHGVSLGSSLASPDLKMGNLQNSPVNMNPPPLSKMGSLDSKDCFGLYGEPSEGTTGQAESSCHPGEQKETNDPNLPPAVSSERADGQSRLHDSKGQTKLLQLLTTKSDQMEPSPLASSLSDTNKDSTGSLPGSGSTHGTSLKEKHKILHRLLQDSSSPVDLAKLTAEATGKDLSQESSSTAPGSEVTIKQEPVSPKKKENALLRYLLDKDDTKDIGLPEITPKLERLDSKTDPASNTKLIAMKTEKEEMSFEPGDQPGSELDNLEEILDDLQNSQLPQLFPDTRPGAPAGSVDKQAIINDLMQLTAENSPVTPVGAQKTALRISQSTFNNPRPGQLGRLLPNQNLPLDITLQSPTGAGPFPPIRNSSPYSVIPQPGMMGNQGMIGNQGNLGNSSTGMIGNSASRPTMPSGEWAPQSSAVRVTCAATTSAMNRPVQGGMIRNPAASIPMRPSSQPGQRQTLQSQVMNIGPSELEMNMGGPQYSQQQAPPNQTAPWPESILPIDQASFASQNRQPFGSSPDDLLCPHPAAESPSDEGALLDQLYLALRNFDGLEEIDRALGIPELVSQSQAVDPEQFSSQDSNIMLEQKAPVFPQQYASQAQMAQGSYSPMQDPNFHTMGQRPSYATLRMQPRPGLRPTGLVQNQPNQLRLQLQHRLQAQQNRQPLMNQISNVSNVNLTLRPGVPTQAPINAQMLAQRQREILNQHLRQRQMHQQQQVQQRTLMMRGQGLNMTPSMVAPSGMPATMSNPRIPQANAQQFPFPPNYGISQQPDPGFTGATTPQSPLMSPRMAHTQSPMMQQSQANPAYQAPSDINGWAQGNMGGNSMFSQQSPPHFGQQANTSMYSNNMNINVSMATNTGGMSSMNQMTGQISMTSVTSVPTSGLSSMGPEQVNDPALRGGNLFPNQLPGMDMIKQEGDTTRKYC

[8] = target: Peroxisome proliferator-activated receptor gamma/Nuclear receptor coactivator 1 (Homo sapiens, UniProt P37231); experiment: TR-FRET dose response biochemical High Throughput Screening assay for agonists of the steroid receptor coactivator 1 (SRC-1) recruitment by the peroxisome proliferator-activated receptor gamma (PPAR gamma): non-selective agonists. [Related pubchem assays (depositor defined):AID1300, AID1808, AID504735, AID631]; type: protein assay
[9] = target: Peroxisome proliferator-activated receptor gamma/Nuclear receptor coactivator 3 (Homo sapiens, UniProt P37231); experiment: TR-FRET dose response biochemical High Throughput Screening assay for agonists of the steroid receptor coactivator 3 (SRC-3) recruitment by the peroxisome proliferator-activated receptor gamma (PPAR gamma): non-selective agonists. [Related pubchem assays: 1301 (Confirmation screen.), 1048 (Primary screen.)]; type: functional
Chain of Peroxisome proliferator-activated receptor gamma/Nuclear receptor coactivator 3 (P37231 whole entry): as the sequence (P37231 whole entry) above
Chain of Peroxisome proliferator-activated receptor gamma/Nuclear receptor coactivator 3 (Q9Y6Q9 whole entry, further chain): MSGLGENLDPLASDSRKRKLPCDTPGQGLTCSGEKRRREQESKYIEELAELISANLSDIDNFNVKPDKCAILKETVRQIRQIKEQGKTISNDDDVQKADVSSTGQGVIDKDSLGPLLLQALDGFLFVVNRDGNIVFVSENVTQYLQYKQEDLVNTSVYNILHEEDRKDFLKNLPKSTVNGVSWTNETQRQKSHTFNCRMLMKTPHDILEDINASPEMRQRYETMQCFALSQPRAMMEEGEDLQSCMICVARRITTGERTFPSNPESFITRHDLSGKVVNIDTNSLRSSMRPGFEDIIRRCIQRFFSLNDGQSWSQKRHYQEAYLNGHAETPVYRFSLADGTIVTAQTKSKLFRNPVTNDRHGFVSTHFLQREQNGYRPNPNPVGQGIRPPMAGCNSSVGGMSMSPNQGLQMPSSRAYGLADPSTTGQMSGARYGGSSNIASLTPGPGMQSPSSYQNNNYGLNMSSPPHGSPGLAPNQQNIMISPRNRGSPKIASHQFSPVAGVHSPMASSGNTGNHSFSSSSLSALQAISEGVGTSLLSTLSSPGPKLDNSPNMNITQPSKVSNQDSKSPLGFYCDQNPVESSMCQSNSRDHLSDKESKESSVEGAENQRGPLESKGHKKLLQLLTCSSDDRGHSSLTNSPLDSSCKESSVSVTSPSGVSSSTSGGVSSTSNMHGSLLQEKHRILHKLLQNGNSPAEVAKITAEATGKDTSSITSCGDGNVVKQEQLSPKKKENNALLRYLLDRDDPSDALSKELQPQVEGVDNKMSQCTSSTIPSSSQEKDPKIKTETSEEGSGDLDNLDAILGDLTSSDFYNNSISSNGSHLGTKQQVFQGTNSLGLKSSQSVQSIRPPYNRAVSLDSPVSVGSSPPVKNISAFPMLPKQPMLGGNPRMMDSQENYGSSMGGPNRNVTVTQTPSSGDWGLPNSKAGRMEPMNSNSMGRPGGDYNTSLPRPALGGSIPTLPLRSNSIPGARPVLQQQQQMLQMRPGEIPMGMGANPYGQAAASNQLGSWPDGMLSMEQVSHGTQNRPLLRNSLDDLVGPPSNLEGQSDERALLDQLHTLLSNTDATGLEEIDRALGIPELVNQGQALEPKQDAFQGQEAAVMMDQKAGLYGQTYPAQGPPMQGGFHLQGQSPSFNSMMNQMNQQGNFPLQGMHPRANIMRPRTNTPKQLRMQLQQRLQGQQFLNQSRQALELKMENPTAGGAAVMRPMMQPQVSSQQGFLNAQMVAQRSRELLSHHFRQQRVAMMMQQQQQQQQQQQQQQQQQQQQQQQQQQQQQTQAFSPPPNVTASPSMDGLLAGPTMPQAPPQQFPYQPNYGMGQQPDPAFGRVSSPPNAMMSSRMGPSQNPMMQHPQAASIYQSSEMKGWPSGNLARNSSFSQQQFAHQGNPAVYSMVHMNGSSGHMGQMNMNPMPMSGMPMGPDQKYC

[10] = target: T4, Heat shock factor protein 1 (Mus musculus, UniProt P38532); experiment: HSF1 potentiators in luciferase reporter cells, confirmation, cell-based, NIH3T3, luminescence, dose retest (AID 435004); type: functional;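 further: stress induced by proteasome inhibitor MG132 added 30 min after compound; luciferase reporter driven by HSF1 response element in NIH3T3 cells; actives raise luminescence as potentiators of the MG132 stress response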
T4 sequence (P38532 whole entry): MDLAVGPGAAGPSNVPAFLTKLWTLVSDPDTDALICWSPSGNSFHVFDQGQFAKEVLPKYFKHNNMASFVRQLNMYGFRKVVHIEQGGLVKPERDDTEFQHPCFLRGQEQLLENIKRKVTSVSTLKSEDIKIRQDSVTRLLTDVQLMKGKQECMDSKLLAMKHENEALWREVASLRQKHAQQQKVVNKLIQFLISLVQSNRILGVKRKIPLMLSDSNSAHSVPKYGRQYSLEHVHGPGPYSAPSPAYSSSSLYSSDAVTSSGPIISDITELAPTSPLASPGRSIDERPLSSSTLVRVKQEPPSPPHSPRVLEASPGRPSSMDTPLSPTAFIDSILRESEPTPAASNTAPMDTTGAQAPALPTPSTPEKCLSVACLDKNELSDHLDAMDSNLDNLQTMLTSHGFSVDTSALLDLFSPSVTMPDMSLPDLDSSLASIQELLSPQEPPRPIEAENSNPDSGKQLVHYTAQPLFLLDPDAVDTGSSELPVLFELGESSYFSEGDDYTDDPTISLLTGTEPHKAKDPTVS

HEK293 [11] = experiment: NOD2 signaling inhibitors in MDP-stimulated cells, cell-based, uHTS, luminescence (AID 2001); type: functional; details: Homo sapiens
[12] = target: Heat shock protein HSP 90-alpha (Homo sapiens, UniProt P07900); type: functional, organism-based
HEK293 [13] = experiment: cells; type: functional, cell-based; details: Homo sapiens
HEK293 [14] = experiment: cells; type: functional, cell-based; details: Homo sapiens; remark: listed apart in the source
HEK293 [15] = experiment: NOD1 signaling inhibitors, primary screen, cell-based, luminescence, uHTS (AID 1578); type: functional; details: Homo sapiens
[16] = target: DNA dC->dU-editing enzyme APOBEC-3G (Homo sapiens, UniProt Q9HC16); experiment: Dose Response confirmation of small molecule APOBEC3G DNA Deaminase Inhibitors via a fluorescence-based single-stranded DNA deaminase assay. [Related pubchem assays (depositor defined):AID493012, AID493028]; type: functional
Chain of DNA dC->dU-editing enzyme APOBEC-3G (Q9HC16 whole entry): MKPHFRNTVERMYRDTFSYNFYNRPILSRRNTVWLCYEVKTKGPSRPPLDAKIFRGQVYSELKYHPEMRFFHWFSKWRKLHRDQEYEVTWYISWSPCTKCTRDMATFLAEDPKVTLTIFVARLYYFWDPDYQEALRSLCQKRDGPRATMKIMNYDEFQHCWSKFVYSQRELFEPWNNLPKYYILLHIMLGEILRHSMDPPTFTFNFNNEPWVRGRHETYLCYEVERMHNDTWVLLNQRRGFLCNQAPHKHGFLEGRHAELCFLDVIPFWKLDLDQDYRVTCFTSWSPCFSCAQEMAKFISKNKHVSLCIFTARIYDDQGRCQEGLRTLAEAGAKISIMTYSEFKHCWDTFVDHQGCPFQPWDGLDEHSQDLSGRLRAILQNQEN

Caspase-6 = target: T5, Caspase-6 (Homo sapiens, UniProt P55212); experiment: human caspase-6 inhibitors, dose response, biochemical, VEID-R110 fluorescence, cherry-pick (AID 720632)
T5 sequence (P55212 whole entry): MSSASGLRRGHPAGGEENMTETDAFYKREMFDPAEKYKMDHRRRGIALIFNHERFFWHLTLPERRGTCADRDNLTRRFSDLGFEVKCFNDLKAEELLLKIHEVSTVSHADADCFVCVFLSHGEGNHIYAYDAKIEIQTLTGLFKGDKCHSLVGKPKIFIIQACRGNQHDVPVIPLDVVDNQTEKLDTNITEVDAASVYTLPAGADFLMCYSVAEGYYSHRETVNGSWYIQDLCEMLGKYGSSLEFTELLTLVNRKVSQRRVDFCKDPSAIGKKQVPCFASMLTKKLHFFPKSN

[17] = HepG2 cell cytotoxicity, dose response, cytotoxicity control for Shn3 inhibitor project, CellTiter-Glo, cherry-picked (AID 624134); type: functional, cell-based
Hexokinase HKDC1 = target: T6, Hexokinase HKDC1 (Homo sapiens, UniProt Q2TB90); experiment: HKDC1 hexokinase inhibitors, dose response, biochemical, W721R variant (AID 504729); type: functional
T6 sequence (Q2TB90 whole entry): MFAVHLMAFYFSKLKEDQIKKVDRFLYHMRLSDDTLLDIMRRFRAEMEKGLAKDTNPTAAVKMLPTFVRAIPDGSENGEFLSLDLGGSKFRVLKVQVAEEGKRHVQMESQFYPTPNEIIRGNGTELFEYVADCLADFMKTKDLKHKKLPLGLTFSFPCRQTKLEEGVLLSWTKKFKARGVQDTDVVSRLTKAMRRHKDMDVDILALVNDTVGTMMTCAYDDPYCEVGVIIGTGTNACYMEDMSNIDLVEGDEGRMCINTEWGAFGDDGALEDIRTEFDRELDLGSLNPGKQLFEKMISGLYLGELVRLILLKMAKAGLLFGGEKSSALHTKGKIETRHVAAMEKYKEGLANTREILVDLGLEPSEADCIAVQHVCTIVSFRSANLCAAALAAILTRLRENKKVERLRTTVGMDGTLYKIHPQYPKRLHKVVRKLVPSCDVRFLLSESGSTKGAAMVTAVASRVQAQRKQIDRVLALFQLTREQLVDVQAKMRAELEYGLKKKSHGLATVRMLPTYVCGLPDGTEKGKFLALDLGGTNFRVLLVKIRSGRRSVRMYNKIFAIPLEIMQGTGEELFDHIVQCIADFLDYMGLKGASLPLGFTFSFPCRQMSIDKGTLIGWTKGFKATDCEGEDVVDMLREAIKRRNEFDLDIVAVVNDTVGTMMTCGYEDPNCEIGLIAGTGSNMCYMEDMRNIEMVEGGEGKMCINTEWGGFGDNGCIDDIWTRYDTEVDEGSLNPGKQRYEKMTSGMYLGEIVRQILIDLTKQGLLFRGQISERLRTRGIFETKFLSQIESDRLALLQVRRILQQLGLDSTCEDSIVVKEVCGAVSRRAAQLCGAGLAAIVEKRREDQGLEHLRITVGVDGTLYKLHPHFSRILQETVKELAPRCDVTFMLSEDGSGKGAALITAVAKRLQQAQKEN

[18] = target: Glucose-6-phosphate 1-dehydrogenase (Homo sapiens, UniProt P11413); experiment: human G6PD enzyme inhibitors, dose response, selectivity assay for P. falciparum G6PD inhibitor project, biochemical, fluorescence (AID 504792); type: functional
[19] = target: DNA damage-inducible transcript 3 protein (Mus musculus, UniProt P35639); type: functional, Cricetulus griseus
Chain of DNA damage-inducible transcript 3 protein (P35639 whole entry): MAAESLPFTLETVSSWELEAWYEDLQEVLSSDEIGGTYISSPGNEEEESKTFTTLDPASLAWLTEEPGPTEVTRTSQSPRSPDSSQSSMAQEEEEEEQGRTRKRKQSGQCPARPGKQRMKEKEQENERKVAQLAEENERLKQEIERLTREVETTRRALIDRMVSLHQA

[20] = control 3'UTR Renilla luciferase suppression, dose response, counter-screen for Shn3 inhibitor project, cell-based, Clone20-Shn3RL, cherry-picked (AID 624133); type: functional
[21] = target: Induced myeloid leukemia cell differentiation protein Mcl-1 (Homo sapiens, UniProt Q07820); type: functional
[22] = Shn3 3'UTR reporter inhibitors, dose response, cell-based, Clone20 osteoblasts, firefly luciferase, cherry-picked (AID 624132); type: functional;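 further: firefly luciferase luminescence from reporter carrying the Shn3 3'UTR in osteoblasts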
[23] = target: T7, Mannose-6-phosphate isomerase (Homo sapiens, UniProt P34949); experiment: human PMI inhibitors, high substrate, primary screen, biochemical, fluorescence intensity, high mannose 6-phosphate (AID 1220)
T7 sequence (P34949 whole entry): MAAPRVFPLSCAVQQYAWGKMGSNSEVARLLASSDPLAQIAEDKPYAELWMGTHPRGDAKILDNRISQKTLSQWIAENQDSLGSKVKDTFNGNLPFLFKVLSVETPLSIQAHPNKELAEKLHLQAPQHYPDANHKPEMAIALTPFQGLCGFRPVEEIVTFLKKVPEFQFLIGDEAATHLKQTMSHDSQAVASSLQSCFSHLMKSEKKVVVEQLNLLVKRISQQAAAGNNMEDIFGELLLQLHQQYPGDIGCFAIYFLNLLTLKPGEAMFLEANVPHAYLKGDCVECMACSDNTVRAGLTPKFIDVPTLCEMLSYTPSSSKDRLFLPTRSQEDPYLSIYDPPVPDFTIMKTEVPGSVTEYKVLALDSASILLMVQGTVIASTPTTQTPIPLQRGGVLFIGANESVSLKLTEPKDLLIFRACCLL

[24] = inhibitors of PGC1a acetylation in cells, dose response, cell-based, cherry-picked samples (AID 720514); type: functional;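 further: potency may reflect raised or lowered acetylation signal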
[25] = target: DNA dC->dU-editing enzyme APOBEC-3A (Homo sapiens, UniProt P31941); experiment: APOBEC3A DNA deaminase inhibitors, dose response, biochemical (AID 504722); type: functional
Paired box protein Pax-8 = Paired box protein Pax-8 (Homo sapiens, UniProt Q06710); experiment: inhibitors of PAX8-driven TPO luciferase reporter, dose response, RMG-I cells, cherry-pick (AID 687027); type: functional, cell-based;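 further: luciferase reporter driven by Pax8 target thyroperoxidase promoter measured by SteadyGlo luminescence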
Chain of Paired box protein Pax-8 (Q06710 whole entry): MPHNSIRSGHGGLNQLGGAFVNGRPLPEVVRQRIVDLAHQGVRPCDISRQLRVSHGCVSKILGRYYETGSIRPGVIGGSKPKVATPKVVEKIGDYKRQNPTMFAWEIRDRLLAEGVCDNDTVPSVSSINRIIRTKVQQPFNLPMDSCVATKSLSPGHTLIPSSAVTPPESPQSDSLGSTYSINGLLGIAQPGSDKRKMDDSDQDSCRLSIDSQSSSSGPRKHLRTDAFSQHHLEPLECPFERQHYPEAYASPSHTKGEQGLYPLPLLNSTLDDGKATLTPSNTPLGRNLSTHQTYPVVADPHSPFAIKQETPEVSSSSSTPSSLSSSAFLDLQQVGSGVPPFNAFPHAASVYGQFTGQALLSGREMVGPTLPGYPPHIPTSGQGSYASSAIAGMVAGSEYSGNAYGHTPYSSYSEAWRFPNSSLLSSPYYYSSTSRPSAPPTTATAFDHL

Major prion protein = Major prion protein (Homo sapiens, UniProt P04156); type: functional, cell-based
[26] = target: Mitogen-activated protein kinase 10 (Homo sapiens, UniProt P53779); experiment: Dose response biochemical screening assay for inhibitors of c-Jun N-Terminal Kinase 3 (JNK3). [Related pubchem assays: 746 ]

Cc1ccc(C)c(OCC(O)CN2CCN(CCN3C(=O)c4cccc5cccc(c45)C3=O)CC2)c1 (stereo not drawn)
IC50 (Bcl-2-related protein A1): > 20 µM (inactive)
AC50 [1]: 7.35 µM (active)
IC50 [2]: 7.55 µM (active)
EC50 [3]: 6.21 µM (active)
IC50 [4]: 9.34 µM (active)
CC50 [5]: 15.8 µM (active)
EC50 [6]: 3.71 µM (active)

Cn1c(=O)cc(SCC(=O)N2CCOCC2)c2ccc(Cl)cc21
EC50 [7]: > 79.4 µM (not active)
EC50 [8]: > 79.4 µM (inactive)
EC50 [9]: > 79.4 µM (not active)
EC50 [10]: > 260 µM (inactive)

CCN(CC)S(=O)(=O)c1cccc(NC(=O)c2ccc(Br)cc2)c1
IC50 (HEK293 [11]): 7.75 µM (active)
AC50 [12]: 3.55 µM (active)
IC50 (HEK293 [13]): 10.1 µM (active)
IC50 (HEK293 [14]): 14.1 µM (active)
EC50 (HEK293 [15]): 11.6 µM (active)

O=S(=O)(Nc1cc(Sc2nc[nH]n2)c(O)c2ccccc12)c1ccccc1
IC50 [16]: 3.16 µM (active)
AC50 (Caspase-6): 911 nM (active)
AC50 [17]: 26.1 µM (active)
IC50 (Hexokinase HKDC1): 9.93 µM (active)
IC50 [18]: 21.1 µM (inactive)
Absolute IC50 (CHOP) [19]: 10 µM
AC50 [20]: 12.4 µM (active)
IC50 [21]: 11.7 µM (active)
AC50 [22]: 7.55 µM (active)
IC50 [23]: 3.32 µM (active)
AC50 [24]: 9.88 µM (active)
IC50 [25]: > 100 µM (inactive)
AC50 (Paired box protein Pax-8): 9.52 µM (active)

C[C@@H]1O[C@@H](O[C@H]2[C@H](Oc3cc(O)c4c(c3)O[C@H](c3ccc(O)cc3)CC4=O)O[C@H](CO)[C@@H](O)[C@@H]2O)[C@H](O)[C@H](O)[C@H]1O [NARINGIN]
IC50 (Bcl-2-related protein A1): > 20 µM (inactive)
IC50 [2]: 12.2 µM (active) and 8.7 µM (active)
IC50 [4]: 5.77 µM (active) and 6.66 µM (active)

COc1ccc(Cl)cc1-c1nnc(S)o1
IC50 (Major prion protein): 2.08 µM (active)
EC50 [7]: 3.4 µM (active)
IC50 [26]: 16.2 µM (not active)
EC50 [8]: 3.67 µM (active)
EC50 [9]: > 79.4 µM (not active)
IC50 (cells): > 138 µM (inactive)
